In patent publication US6900024B2, “T cell receptor ligands and methods of using same” (The United States of America as represented by the …, priority 1993, dated 2005):
Ends that are not written are not given here. * marks the point of attachment. long‑chain biotin = O=C(CCCC[C@@H]1SC[C@@H]2NC(=O)N[C@@H]21)NCCCCCC(=O)*

What was measured:
3C6 Th1 cells = test: IL-2 production by 3C6 Th1 cells co-cultured with transfected L cells (CTLL indicator cells); assay type: cell-based, mouse; settings: L cells expressing MHC molecules with kss Eβ chains
Method: Production of IL-2 and IL-3 in response to L cell transfectants in the presence or absence of added peptide was measured as described in Ronchese et al., Nature, 329, 254-6 (1987b). In brief, 2−5×10^4 T cells were incubated with 2−5×10^4 transfected L cells in the wells of 96-well flat bottom culture plates in 200 μl of complete medium with or without various concentrations of peptide antigen. Supernatants were collected after 24 hours and assayed for IL-2 content using CTLL indicator cells, or for IL-3 content using FDC.1 cells. IL-2 and IL-3 units were calculated as the inverse of the dilution giving 50% of the maximum ^3H-thymidine incorporation by CTLL (IL-2) or FDC.1 (IL-3) cells observed with reference IL-2 and IL-3 preparations. Proliferative responses were measured by assessing ^3H-thymidine incorporation between 48-66 hrs of culture. For experiments in which the data are expressed as “% max” or “% alloresponse”, the actual absolute 100% responses were: IL-2 alloresponse, 10-40 units/ml; IL-3 alloresponse, 100-500 units/ml; IL-2 response to EαEβ^k plus PCC peptide, 150-300 units/ml; IL-3 response to EαEβ^k plus PCC peptide, 1000-10,000 units/ml; IL-2 response to fixed cells bearing EαEβ^k plus PCC peptide, 30-50 units/ml; IL-3 response to fixed cells bearing EαEβ^k plus PCC peptide, 50-200 units/ml. […]

[1] = tested on: MHC molecules with kss Eβ chains; test: Peptide binding to cell-associated class II MHC molecules using biotinylated peptides; parameters: species or system mouse
Method: A modified version of the assay described in Busch et al., Int. Immunol., 2, 443-51 (1990), was used to measure peptide binding to cell-associated class II MHC molecules. After extensive washing in phosphate buffered saline (PBS)-1% bovine serum albumin (BSA), 2×10^5 DAP.3 cells or DAP.3 transfectants expressing various EαEβ molecules were incubated at 37° C. in 200 μl of PBS-2% FCS containing the indicated concentration of biotinylated peptide. In the competition experiments competitors were added at the same time as labeled peptide and at the indicated concentrations. After 4 hours, the cells were washed and stained with a sandwich of FITC-avidin (Vector), biotinylated-anti-avidin (Vector), and FITC-avidin (Vector). After washing, the cells were analyzed on a FAScan flow cytometer for fluorescence. Only viable cells were considered in the analysis, as determined by PI staining. The data are expressed as net mean fluorescence intensity (MFI), calculated by subtracting from the actual MFI the MFI obtained by staining in the absence of biotinylated-peptide. Percent inhibition in the competition experiments was calculated as: % of I=(net MFI without competitor−net MFI with competitor)/(net MFI without […]).

Substance: HEL 81-96: hen egg lysozyme (HEL) peptide 81-96, with NH2-terminal long-chain biotin in FIG. 3 ({long‑chain biotin}-SALLSSDITASVNCAK; UniProt P00698 99-114, looked up, fragment)
- effect of peptide on alloreactive stimulation of IL-2 production (3C6 Th1 cells): lacked ability to inhibit alloreactive stimulation of IL-2 production
- direct binding of biotinylated peptide to MHC molecules with kss chains ([1]; FIG. 3A): bound well to the MHC molecules with kss chains

Substance: HEL 46-61: hen egg lysozyme (HEL) peptide 46-61
- binding to MHC molecule with kss chains, competition for binding of biotinylated-DASP ([1]; biotinylated-DASP 25 μM, FIG. 2A): able to bind the MHC molecule with kss chains to a similar extent as the inhibitory PCC 81-104 peptide
